Usually half-life stands for the time needed for the level to fall by half in the phase considered.

Several values for one entry are separate records, joined by “and”; a condition that tells them apart may be missing. Equal values may be shown once. Where only a bound is given, the exact number is not on record here.

Data set [1] is described as follows: Second-order kinetics of cyclooctyne hydroamination by N,N-diethylhydroxylamine (NMR; competition experiment for 10). The note with it: CD3CN, room temperature; for k2 (M^−1s^−1), second order rate constant: equimolar cyclooctyne and N,N-diethylhydroxylamine, NMR, error = standard deviation of the mean, triplicate. The data set is classed as physicochemical. As to the method: Using NMR spectroscopy to monitor reaction progress, the second order rate constants for the reaction of N,N-diethylhydroxyl amine (1) with a panel of cyclooctynes 2-10 in d3-acetonitrile was determined at room temperature (FIG. 3).
All kinetics experiments were carried out at room temperature in CD3CN. Reactions were monitored via NMR spectroscopy using an internal standard. Second order kinetics were performed by combining cyclooctynes and N,N-diethylhydroxylamine in a 1:1 ratio. […] The reported errors for rate constants are based on the standard deviation of the mean for experiments performed in triplicate.
The second order rate constant for difluorocyclooctyne 10 was determined using a competition experiment with carbamate 9. […] The solution was transferred to an NMR tube and the product ratio (S14:S13) was determined by ^1HNMR spectroscopy using 1,3,5-trimethoxylbenzene as an internal standard. […] The reported error for the rate constant is the standard deviation of the mean for experiments performed in triplicate.

A short description of data set [2]: Reactivity screening of linear alkynes 8′-15′ (NMR conversion). The data set is classed as physicochemical. The note with it: 10 mM alkyne, 5 equivalents hydroxylamine, CD3CN, room temperature, 48 hours. The protocol: With the desired alkynes in hand, their reactivity toward N,N-diethylhydroxylamine (2′) was examined. […] were each incubated with 5 equivalents of […] in CD3CN at room temperature, and the reaction conversions were monitored by ^1H (alkyne 8′) or ^19F (alkynes 9′-15′) NMR (FIG. 12A). […] Their conversion to the corresponding enamine N-oxides could only be achieved upon heating to 60° C. (Example 59).
Each experiment was performed with 10 mM alkyne (8′-15′) and 50 mM […] in CD3CN at room temperature. The consumption of starting material was monitored via ^1H (8′) or ^19F (9′-15′) NMR spectroscopy using α,α,α-benzotrifluoride as an internal standard (FIG. 12A).

Data set [3] can be described thus: Stability study of alkynes and enamine N-oxide 20′ in 50% CD3CN/PBS with or without glutathione or cell lysate (19F NMR). The note with it: for time over which compound is stable: 2 mM compound, 50% CD3CN/PBS (pH 7.0), 19F NMR; for degradation by 19F NMR without glutathione: pH 7.0, room temperature, 7 days. The data set is classed as physicochemical. The protocol: The stability of alkynes 13′-15′ under biological conditions was evaluated (FIG. 13B). […] These stabilities compared favorably with contemporary bioorthogonal transformations (Oliveira et al., Chem. Soc. Rev. 46(16):4895-4950 (2017); Tian et al., ACS Chem. Biol. 14(12):2489-2496 (2019)). […] This observation was consistent with σ-withdrawing/n-donating alkyne substituents, such as halogens, simultaneously promoting hydroamination and attenuating conjugate addition by cellular nucleophiles.
The enamine N-oxide products were remarkably stable, especially in aqueous solutions.
All stability experiments were carried out at room temperature in 50% CD3CN in PBS (pH 7.0) with or without equimolar glutathione. pH was adjusted after the addition of glutathione. Reactions were monitored via ^19F NMR spectroscopy using α,α,α-benzotrifluoride as an internal standard (FIG. 17-FIG. 20).

Data set [4] has as its target T1, lysozyme-cyclooctyne conjugate (Lys-COT) 11″ (Gallus gallus, UniProt P00698).
T1 construct: purchased
Put plainly: Time-dependent labeling of Lys-COT 11″ by TAMRA-hydroxylamines 6″-10″ (in-gel fluorescence). The data set is classed as biochemical. The note with it: 200 μM hydroxylamine, 10 μM Lys-COT 11″, PBS; for extent of lysozyme labeling: 1-72 h; for time to complete conversion (lysozyme labeling): room temperature. As to the method: The relative rates of hydroamination between TAMRA-hydroxylamines 6″-10″ ([…]) and Lys-COT 11″ (10 μM) were evaluated by monitoring the extent of lysozyme labeling over 1-72 h in phosphate-buffered saline (PBS) at room temperature by in-gel fluorescence (FIG. 26B).
Lysozyme (CAS 12650-88-3, 50 mg/mL in deionized H2O) was diluted into phosphate-buffered saline (PBS, pH 7.4) to a final concentration of 10 mg/mL. […] The reaction solution was incubated for 1 h at room temperature. […] The concentration of lysozyme was determined by A280 measurement in denaturing buffer (pH 7.0, 6 M guanidinium, 30 mM MOPS) on a UV-vis spectrophotometer. The solution was diluted with PBS (pH 7.4) to a final concentration of 0.15 mg/mL or 0.60 mg/mL for labeling experiments. The protein solutions were snap frozen under liquid nitrogen and stored at −20° C.
Time-dependent protein labeling experiments: A solution of TAMRA-hydroxylamine 6″ (Kang, et al., J. Am. Chem. Soc. 143:5616-5621 (2021))-8″ and 10″ (1.26 μL, 5 mM in H2O; 200 μM final concentration) or 9″ (1.26 μL, 5 mM in 50% DMSO/H2O; 200 μM final concentration) was added to a solution of lysozyme-COT 11″ (30.0 μL, 0.15 mg/mL in PBS, pH 7.4). The reaction mixtures were incubated at room temperature in the dark. At each time point, an aliquot of the reaction mixture (3 uL) was removed, quenched by adding 1×SDS sample buffer (19.5 μL) and N,N-diethylhydroxylamine (7.5 uL, 100 mM in H2O; 25 mM final concentration), snap frozen in liquid nitrogen, and stored at −80° C. until all samples were ready to be loaded on the gel. After 72 h, all reactions had been quenched. All samples were thawed, and each solution (6 μL) was loaded onto a 15-well 12% SDS-PAGE gel. The gel was run at room temperature and at 175 V for 50 min. In-gel fluorescence was imaged with a Typhoon™ FLA 9500 (GE) at 532 nm with a photomultiplier tube (PMT) setting of 500 V (FIG. 35-FIG. 37).

T1 sequence (P00698 19-147): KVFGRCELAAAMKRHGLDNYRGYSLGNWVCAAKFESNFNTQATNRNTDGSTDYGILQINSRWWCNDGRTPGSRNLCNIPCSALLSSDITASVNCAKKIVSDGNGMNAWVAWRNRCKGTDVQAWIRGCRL

As for `O=C(Nc1ccc([N+](=O)[O-])cc1)OC1C#CCCCCC1` (centres unmarked) [compound 9, cyclooct-2-yn-1-yl (4-nitrophenyl)carbamate], in data set [1], the “rate acceleration over cyclooctyne (2)” value is 120 fold; the “k2 (M^−1s^−1), second order rate constant” value is 3.87 M⁻¹ s⁻¹ and 3.87 ± 0.55 M⁻¹ s⁻¹.
In the case of `C#CC(F)(F)CCOCc1ccc(OC)cc1` [10′, 1-(((3,3-difluoropent-4-yn-1-yl)oxy)methyl)-4-methoxybenzene], the “reactivity toward N,N-dialkylhydroxylamine (NMR conversion)” value in data set [2] was “partial conversion”.
As for `CC[N+]([O-])(CC)/C(Cl)=C/C(F)(F)OCCOCc1ccc(OC)cc1` [20′, (Z)-1-chloro-N,N-diethyl-3,3-difluoro-3-(2-((4-methoxybenzyl)oxy)ethoxy)prop-1-en-1-amine oxide], the “degradation in cell lysate” value in data set [3] (cell lysate, room temperature, 24 hours) is “no observable degradation”.
As for `CN(C)c1ccc2c(c1)Oc1cc(N(C)C)ccc1C21OC(=O)c2ccc(C(=O)NCCOCCN(O)C(C)(C)C)cc21` [8″, N-(2-(2-(tert-Butyl(hydroxy)amino)ethoxy)ethyl)-3′,6′-bis(dimethylamino)-3-oxo-3H-spiro[isobenzofuran-1,9′-xanthene]-6-carboxamide], the “extent of lysozyme labeling” value in data set [4] is listed as “poor labeling”.
Still for that read-out and setting: under `CC(C)N(O)CCOCCNC(=O)c1ccc2c(c1)C1(OC2=O)c2ccc(N(C)C)cc2Oc2cc(N(C)C)ccc21` [7″, 3′,6′-Bis(dimethylamino)-N-(2-(2-(hydroxy(isopropyl)amino)ethoxy)ethyl)-3-oxo-3H-spiro[isobenzofuran-1,9′-xanthene]-6-carboxamide] stands “poor labeling”.
As to `CC(=O)OC1C#CCCCCC1` (centres unmarked) [compound 6, cyclooct-2-yn-1-yl acetate], the “k2 (M^−1s^−1), second order rate constant” value in data set [1] turned out to be 2.13 ± 0.03 M⁻¹ s⁻¹.
Take `COc1ccc(COCCOC(F)(F)C#CI)cc1` [12′, 1-((2-((1,1-difluoro-3-iodoprop-2-yn-1-yl)oxy)ethoxy)methyl)-4-methoxybenzene]: the “reactivity toward N,N-dialkylhydroxylamine (NMR conversion)” value in data set [2] was “moderate reactivity”.
Turning to `COc1ccc(COCCOC(F)(F)C#CCl)cc1` [14′, 1-((2-((3-chloro-1,1-difluoroprop-2-yn-1-yl)oxy)ethoxy)methyl)-4-methoxybenzene], in data set [3], the “time over which compound is stable” value is recorded as no less than 2 weeks. Also, the “degradation by 19F NMR without glutathione” value in data set [3] (50% CD3CN/PBS) is “no degradation”.
Consider `CN(C)c1ccc2c(c1)Oc1cc(N(C)C)ccc1C21OC(=O)c2ccc(C(=O)N3CCN(O)CC3)cc21` [10″, 3′,6′-Bis(dimethylamino)-6-(4-hydroxypiperazine-1-carbonyl)-3H-spiro[isobenzofuran-1,9′-xanthen]-3-one], for which the “time to complete conversion (lysozyme labeling)” value in data set [4] was no more than 10 h.
`C#CCOCc1ccc(OC)cc1` [8′, 1-methoxy-4-((prop-2-yn-1-yloxy)methyl)benzene]: the “reactivity toward N,N-dialkylhydroxylamine (NMR conversion)” value in data set [2] is given as “no conversion”.
Take `FC1C#CCCCCC1` (centres unmarked) [compound 7, 3-fluorocyclooct-1-yne]: in data set [1], the “k2 (M^−1s^−1), second order rate constant” value turned out to be 2.71 ± 0.43 M⁻¹ s⁻¹.
Consider `COc1ccc(COCCOC(F)(F)C#CBr)cc1` [13′, 1-((2-((3-bromo-1,1-difluoroprop-2-yn-1-yl)oxy)ethoxy)methyl)-4-methoxybenzene], for which the “time to degradation in the presence of thiol” value in data set [3] (50% CD3CN/PBS, pH 7.0, 2 mM glutathione) is less than 10 min.
Consider `COc1ccc(COCCC(F)(F)C#CCl)cc1` [15′, 1-(((5-chloro-3,3-difluoropent-4-yn-1-yl)oxy)methyl)-4-methoxybenzene], for which the “time over which compound is stable” value in data set [3] is reported as no less than 1 weeks. In data set [3] (50% CD3CN/PBS with 2 mM glutathione, pH 7, 50% CD3CN/PBS, pH 7.0, 2 mM glutathione, room temperature (500 μM compound elsewhere in the source), read-out: half-life in the presence of glutathione (converted)), the half-life was 43 h. Further, the “degradation by 19F NMR without glutathione” value in data set [3] (50% CD3CN/PBS) is “no degradation”.
For the molecule `CN(C)c1ccc2c(c1)Oc1cc(N(C)C)ccc1C21OC(=O)c2ccc(C(=O)NCCOCCN(O)Cc3ccccc3)cc21` [9″, N-(2-(2-(Benzyl(hydroxy)amino)ethoxy)ethyl)-3′,6′-bis(dimethylamino)-3-oxo-3H-spiro[isobenzofuran-1,9′-xanthene]-6-carboxamide], the “time to complete conversion (lysozyme labeling)” value in data set [4] is given as no more than 6 h.
Turning to `C#CC(F)CCOCc1ccc(OC)cc1` (centres unmarked) [9′, 1-(((3-fluoropent-4-yn-1-yl)oxy)methyl)-4-methoxybenzene], the “reactivity toward N,N-dialkylhydroxylamine (NMR conversion)” value in data set [2] is “no conversion”.
Consider “dibenzoazacyclooctyne [compound 8, reference compound]”, for which, in data set [1], the “k2 (M^−1s^−1), second order rate constant” value stood at 2.77 ± 0.13 M⁻¹ s⁻¹.
Regarding `C#CC(F)(F)OCCOCc1ccc(OC)cc1` [11′, 1-((2-((1,1-difluoroprop-2-yn-1-yl)oxy)ethoxy)methyl)-4-methoxybenzene], in data set [2], the “reactivity toward N,N-dialkylhydroxylamine (NMR conversion)” value is on record as “moderate reactivity”.
`OC1C#CCCCCC1` (centres unmarked) [compound 4, cyclooct-2-yn-1-ol]: the “k2 (M^−1s^−1), second order rate constant” value in data set [1] came to 1.19 ± 0.15 M⁻¹ s⁻¹.
The same measure, in the same setting: under `C1#CC2(CCCCC1)OCCO2` [compound 5, 1,4-dioxaspiro[4.7]dodec-6-yne] stands 1.20 ± 0.09 M⁻¹ s⁻¹.

The values are drawn from patent publication US20240165259A1, “BIOORTHOGONAL REACTION SUITABLE FOR CLICK/UNCLICK APPLICATIONS” (DANA-FARBER CANCER INSTITUTE, INC., priority 2021, published 2024).
